# Patent US20240407993A1, “PEPTIDE HAVING ANTI-AGING ACTIVITY, AND USE THEREOF” (CAREGEN CO., LTD., priority 2021, published 2024)
# How the values were obtained:
# [1] = tested on: HaCaT cells; experiment: Intracellular ROS level after UVB irradiation (DCFH-DA, FACS) in keratinocytes; type: cell-based, human; settings: 15 mJ/cm^2 UVB, peptide 1, 10, 50 μM, 24 hours after irradiation, FIG. 4B
# Experimental: The reactive oxygen species level increases when UV is irradiated. Therefore, it was confirmed whether the reactive oxygen species level decreased again and the aging phenomenon caused by oxidative stress in cells was inhibited when treated with the peptide of the present invention.
# (§1) First, NIH3T3 cells and HaCaT cells were seeded in a 6-well plate at a cell density of 5×10^5 cell/well, respectively, and then the cells were cultured in DMEM medium containing 10% fetal bovine serum (FBS) for 24 hours. The cultured cells were washed once with serum free DMEM medium, and then the peptide of the present invention was mixed in 1 mL of the serum free DMEM medium at each of concentrations of 1, 10, and 50 μM, and dispensed into the cells. A positive control (PC) was treated with 2.5 mM of N-Acetylcysteine (NaC) instead of the above peptide.
# The cells were cultured in a CO2 incubator at 37° C. for 1 hour. The medium of the cultured cells was transferred to a tube, 1 ml of PBS was added, and then the NIH3T3 cells were irradiated with 8 J/cm^2 of UVA and the HaCaT cells were irradiated with 15 mJ/cm^2 of UVB using a UV irradiator (VILBER LOURMAT, Cat No.: 3102-BSU, France). […] After centrifugation, the cells were washed with PBS, and a fluorescence value was measured through FACS.
# [2] = tested on: Elastin; experiment: Elastin mRNA level decreased by UV irradiation, RT-PCR in fibroblasts; type: cell-based, mouse; settings: NIH3T3 cells, 8 J/cm^2 UVA, peptide 1, 10, 50 μM, 6 hours after irradiation; FIGS. 5A, 5D
# Experimental: (§2) The expression of genes related to extracellular matrix components is inhibited when irradiated with UV.
# as §1, with “NIH3T3” for “NIH3T3 cells and HaCaT”, “cell/well,” for “cell/well, respectively,”, “50 μM” for “2.5 mM”, “Quercetin” for “N-Acetylcysteine (NaC)”, “peptide. The cells were cultured in a CO2 incubator at 37° C. for 1 hour.” for “peptide.”
# (§3) The medium of the cultured cells was transferred to a tube (e-tube), 1 ml of PBS was added, and irradiation was performed with 8 J/cm^2 of UVA using a UV irradiator (VILBER LOURMAT, Cat No.: 3102-BSU, France). After removing PBS, 900 μL of the medium transferred to the tube was dispensed, and culture was performed in a CO2 incubator at 37° C. for 6 hours. The cultured cells were washed twice with PBS, and then RNA was extracted from the cells using easy blue (iNtRON, Cat. No.: 17061, Korea). The amount of RNA extracted was quantified, 1,000 ng of RNA was added per tube, and RT reaction was performed using a kit (enzynomics, Cat. No.: RT200, Korea). […]
# [3] = tested on: AQP3; experiment: AQP3 mRNA level by RT-PCR in keratinocytes; type: cell-based, human; settings: HaCaT cells, peptide 1, 10, 50 μM, 24 hours; FIGS. 3A, 3C
# Experimental: as §1, with “First,” for “First, NIH3T3 cells and”, “3×10^5” for “5×10^5”, “cell/well,” for “cell/well, respectively,”, “100 nM” for “2.5 mM”, “EGF” for “N-Acetylcysteine (NaC)”, “peptide. The cells were cultured in a CO2 incubator at 37° C. for 24 hours.” for “peptide.”
# (§4) The cultured cells were washed twice with PBS, and then RNA was extracted from the cells using easy blue (iNtRON, Cat. No.: 17061, Korea). The extracted RNA was subjected to RT reaction using a kit (enzynomics, Cat. No.: RT200, Korea). Thereafter, RT-PCR was performed using a PCR kit (enzynomics, Cat. No.: R581T, Korea). The sequences of the primers of AQP3 and SIRT1 used in RT-PCR and the sequence of the primer of GAPDH used to compare the total RNA amount of each treatment group are shown in [Table 2].
# [4] = tested on: Fibronectin; experiment: Fibronectin mRNA level decreased by UV irradiation, RT-PCR in fibroblasts; type: cell-based, mouse; settings: NIH3T3 cells, 8 J/cm^2 UVA, peptide 1, 10, 50 μM, 6 hours after irradiation; FIGS. 5A, 5C
# Experimental: as §2
# as §1, with “NIH3T3” for “NIH3T3 cells and HaCaT”, “cell/well,” for “cell/well, respectively,”, “50 μM” for “2.5 mM”, “Quercetin” for “N-Acetylcysteine (NaC)”, “peptide. The cells were cultured in a CO2 incubator at 37° C. for 1 hour.” for “peptide.”
# as §3
# [5] = tested on: Fibronectin; experiment: Fibronectin gene expression by RT-PCR in fibroblasts; type: cell-based, mouse; settings: NIH3T3 cells, peptide 1, 10, 50 μM, 24 hours; FIGS. 1A, 1C
# Experimental: First, NIH3T3 cells (mouse fibroblast cell line) were seeded in a 6-well plate at a cell density of 3×10^5 cell/well, and then the cells were cultured in DMEM medium containing 10% fetal bovine serum (FBS) for 24 hours. The cultured cells were washed once with serum free DMEM medium, and the peptide of the present invention was mixed in 1 mL of the serum free DMEM medium at each of concentrations of 1, 10, and 50 μM, and dispensed into the cells. A positive control (PC) was treated with 5 ng/ml of TGF-β1 instead of the above peptide. The cells were cultured in a CO2 incubator at 37° C. for 24 hours.
# The cultured cells were washed twice with PBS, and RNA was extracted from the cells using easy blue (iNtRON, Cat. No.: 17061, Korea). The amount of RNA extracted was quantified, 1,000 ng of RNA was added per tube, and RT reaction was performed using a kit (enzynomics, Cat. No.: PT200, Korea). RT-PCR was performed using a PCR kit (enzynomics, Cat. No.: […], Korea). The sequences of the primers of collagen, fibronectin, and elastin used in RT-PCR and the sequence of the primer of GAPDH used to compare the total RNA amount of each treatment group are shown in [Table 2].
# [6] = tested on: SIRT1; experiment: SIRT1 mRNA level by RT-PCR in keratinocytes; type: cell-based, human; settings: HaCaT cells, peptide 1, 10, 50 μM, 24 hours; FIGS. 3A, 3B
# Experimental: First, HaCaT cells were seeded in a 6-well plate at a cell density of 3×10^5 cell/well, and then the cells were cultured in DMEM medium containing 10% fetal bovine serum (FBS) for 24 hours. The cultured cells were washed once with serum free DMEM medium, and then the peptide of the present invention was mixed in 1 mL of the serum free DMEM medium at each of concentrations of 1, 10, and 50 μM, and dispensed into the cells. A positive control (PC) was treated with 100 nM of EGF instead of the above peptide. The cells were cultured in a CO2 incubator at 37° C. for 24 hours.
# as §4
sequence,measurement,setting,value
LCACCLHNCNECQ,intracellular reactive oxygen species level increased by UV irradiation,[1],decreased
same,mRNA level of elastin decreased by UV irradiation,[2],increased again
same,mRNA level of AQP3,[3],increased
same,mRNA level of fibronectin decreased by UV irradiation,[4],increased again
same,expression of the fibronectin gene,[5],gradually increased as a concentration of the peptide increased
same,mRNA level of SIRT1,[6],increased
